Results on seven compounds are retold here after patent US20240158439A1, “INHIBITORS OF ANTIGEN PRESENTATION BY MHC CLASS II HLA-DRB1*15:01 MOLECULES WITH ENHANCED METABOLIC STABILITY” (Provid Pharmaceuticals Inc., priority 2021, published 2024).

By IC50 is commonly meant the concentration needed to halve the response being measured. In general, half-life refers to the time in which the quantity being followed falls by half. Low values mean rapid decline, high ones slow decline.

Values joined by “and” are separate entries in the source; they are usually repeats but may differ in a detail not shown here. Equal entries are not always repeated. Where two headings read alike, the source gives them in different places. *1 amine or outer side, *2 acyl side, *3 side chain or, on linkers, in order; H or OH if unused. Where a SMILES comes first, the peptide text is derived from it. [ ]: non-standard residue; d: D form. The star is where a group is joined. X3 = Nc1nc(C[C@H](N[*:1])C(=O)[*:2])c[nH]1; Gly(cPent) = N[C@H](C(=O)O)C1CCCC1; NH(CH2CH2O)4Me = COCCOCCOCCOCCN*; Tic = O=C(O)[C@@H]1Cc2ccccc2CN1; Chg = N[C@H](C(=O)O)C1CCCCC1; NHCH2CH2OMe = COCCN*

In data set [1] the test system is BC3 T cells + autologous hPBMCs from DRB1*15:01-positive MS patient. Kind of data set: Human cellular immunology assay (IFN-gamma ELISPOT). The following applies: inhibition of IFN-gamma response, FIG. 2. Type of data set: cell-based. The procedure: After washing and blocking, autologous APCs (irradiated PBMCs) pretreated with different concentrations of the DRB1*15:01 inhibitors for 45 min were added on the plate (0.3−0.5×10^6 cells per well), followed by the addition of Ag or positive control using PHA (Sigma-Aldrich) or anti-human CD3 mAb (Bio X Cell; OKT3) along with BC3 T cells or enriched PBMC T cells (4,000-20,000 cells per well). Plates were incubated at 37° C. for 24 h, then washed and biotinylated anti-human IFN-γ mAb (Thermo Scientific; B133.5) was added at 4° C., overnight. After that, plates were incubated with Streptavidin AP (Invitrogen) and developed with BCIP/NBT Phosphatase substrate (KPL) after washing. After developing of the plates, image analysis of ELISPOT assays was performed on a Series 2 ImmunoSpot analyzer and software (CTL) as described previously (Kawamura, K., et al., (2008) J. Immunol. 181: 3202-3211).

Data set [2] deals with EAE in DRB1*15:01 transgenic mice. The following applies: cited from earlier work.
The target of a further data set is T1, HLA-DRB1*15:01 (Homo sapiens, UniProt P01903+P01911).
T1 construct: endogenous in cells; host or cells: EBV homozygous cell lines (human)
Kind of data set: HLA II binding assay (competitive, biotinylated reference peptide).

The nature of data set [3]: Mouse pharmacokinetics/metabolism study. The data set is classed as in vivo, C57BL/6J mice. The procedure: The pharmacokinetics/metabolism study was performed in non-fasted C57BL/6J mice. Dose formulation was prepared on the day of treatment, using 10% v/v DMSO solution and 90% sterile water for injection as vehicle. Blood samples were collected at 0.25, 0.5, 1, 2, 4, 6, 8, 12 and 24 hr post-dose (n=9 mice/group, staggered sampling with 3 mice/time point). At each time point, under isoflurane anesthesia approximately 70 μL of blood was collected through retro orbital plexus puncture and transferred into a pre-labeled tube. 50 μL of blood was taken from the prelabeled tube and it was added into a labelled tube containing 200 μL of acetonitrile to precipitate proteins. Immediately, blood samples were vortexed to facilitate mixing of acetonitrile with the blood. Samples were kept on dry ice at −70° C. until analysis. [table] Bioanalysis was performed using fit-for-purpose analytical method using LC-MS/MS method for the quantification of PV-267 (Parent) or PV-3212 (Parent) and PV-623 (Metabolite) in mice blood samples and the linearity range was 2 to 2500 ng/mL for PV-267 (Parent), PV-3212 (Parent) and PV-623 (metabolite). The blood pharmacokinetic parameters for PV-267 and PV-3212 were calculated by using standard non-compartmental analysis (Phoenix software, version 6.4, Pharsight Corporation, Mountain View, Calif. 94040/USA) using the sparse sampling model and linear trapezoidal with linear interpolation calculation method. Pharmacokinetic Parameters for PV-623 (metabolite) were not calculated due to insufficient blood concentrations.

The subject of data set [4] is Goodpasture antigen (α3(IV)NC1). The following applies: Huynh et al. 2019; cited from earlier work.
Data set [5] is described as follows: Pharmacokinetics of PV-267 in rats and mice.
Setting [6] is: Table 2, DRB1*15:01 binding, unit inferred, nM, read-out: Avg IC50.
Where [7] appears, read: C57BL/6J, mouse, in vivo, ip, 10 mg/kg.

Take `COCCOCCOCCOCCNC(=O)[C@H](Cc1ccccc1)NC(=O)[C@@H]1Cc2ccccc2CN1C(=O)[C@H](CCCNC(=N)N)NC(=O)[C@@H](NC(=O)[C@@H](NC(C)=O)C(C)C)C1CCCCC1` [PV-3213, Ac-V-(Chg)-R-(Tic)-F—NH(CH2CH2O)4CH3] (Ac-V[Chg]R[Tic]F-{NH(CH2CH2O)4Me}): the “potency compared to PV-267 in human cellular assay” value in data set [1] is given as “at least as potent as the unsubstituted PV-267”.

As for `CC(=O)N[C@H](C(=O)N[C@H](C(=O)N[C@@H](CCCNC(=N)N)C(=O)N1Cc2ccccc2C[C@H]1C(=O)N[C@@H](Cc1ccccc1)C(N)=O)C1CCCCC1)C(C)C` [PV-267, Ac-V-(Chg)-R-(Tic)-F—NH2] (Ac-V[Chg]R[Tic]F-NH2), the “efficacy in animal models of multiple sclerosis” value in data set [2] was “efficacy in animal models of multiple sclerosis”. Further, the IC50 on HLA-DRB1*15:01 (read-out: binding IC50) was determined as 2.5 nM. For the same compound, in data set [3] (10 mg/kg IP, 0.25 hr), the “ratio of metabolite PV-623 to parent at 0.25 hr” value is 0.61 and 0.67. The “ratio of metabolite PV-623 to parent at 0.5 hr” value in data set [3] (10 mg/kg IP, 0.5 hr) was found to be 0.73. Further, in data set [3] (C57BL/6J, mouse, plasma, ip, 10 mg/kg, parent, text b45, 0.25 hr, read-out: plasma concentration at 0.25 hr), the level at 0.25 h amounted to 275 ng/mL. Further, the level at 0.5 h in data set [3] (C57BL/6J, mouse, plasma, ip, 10 mg/kg, parent, text b45, 0.5 hr, read-out: plasma concentration at 0.5 hr) came out at 91.5 ng/mL. For the same compound, the Cmax in data set [3] (C57BL/6J, mouse, whole blood, single IP 10 mg/kg, observed at 0.25 hr post dose, read-out: Parent peak blood concentration) is 275 ng/mL. The “metabolism to the acid PV-623” value in data set [3] (mouse PK studies) is reported as “rapidly metabolized to PV-623”. For the same compound, the Mean Plasma Concentration 0.25 hr in data set [3] (parent compound, 10 mg/kg IP, 0.25 hr) came out at 275 ng/mL. For the same compound, the Mean Plasma Concentration 0.5 hr in data set [3] (parent compound, 10 mg/kg IP, 0.5 hr) came to 91.5 ng/mL. Also, the “autoreactivity to the Goodpasture antigen” value in data set [4] is reported as “attenuates autoreactivity to the Goodpasture antigen”. Also, the “in vivo conversion to C-terminal acid PV-623” value in data set [5] is on record as “significantly converted to the C-terminal acid PV-623”.

Turning to `CC(=O)N[C@H](C(=O)N[C@H](C(=O)N[C@@H](CCCNC(=N)N)C(=O)N1Cc2ccccc2C[C@H]1C(=O)N[C@@H](Cc1ccccc1)C(=O)O)C1CCCCC1)C(C)C` [PV-623, Ac-V-(Chg)-R-(Tic)-F—OH] (Ac-V[Chg]R[Tic]F-OH), at HLA-DRB1*15:01 (setting [6]), the IC50 was 26 nM. For the same compound, the Mean Plasma Concentration 0.25 hr was 169 ng/mL in data set [3] (acid metabolite PV-623 after PV-267 10 mg/kg IP, 0.25 hr) and 8.54 ng/mL in data set [3] (acid metabolite PV-623 after PV-3212 10 mg/kg IP, 0.25 hr). The Mean Plasma Concentration 0.5 hr in data set [3] (acid metabolite PV-623 after PV-267 10 mg/kg IP, 0.5 hr) came to 65.3 ng/mL; in data set [3] (acid metabolite PV-623 after PV-3212 10 mg/kg IP, 0.5 hr), 3.57 ng/mL.

Regarding `CO[C@H](C)[C@H](NC(C)=O)C(=O)N[C@H](C(=O)N[C@@H](CCCNC(=N)N)C(=O)N1Cc2ccccc2C[C@H]1C(=O)N[C@@H](Cc1ccccc1)C(N)=O)C1CCCCC1` [PV-592] (Ac-T(Me)[Chg]R[Tic]F-NH2), at HLA-DRB1*15:01 (setting [6]), the concentration for half-maximal inhibition (IC50) was determined as 4.1 nM.

Take `COCCNC(=O)[C@H](Cc1ccccc1)NC(=O)[C@@H]1Cc2ccccc2CN1C(=O)[C@H](CCCNC(=N)N)NC(=O)[C@@H](NC(=O)[C@@H](NC(C)=O)C(C)C)C1CCCCC1` [PV-3212, Ac-V-(Chg)-R-(Tic)-F—NH(CH2CH2O)1CH3] (Ac-V[Chg]R[Tic]F-NHCH2CH2OMe): in data set [1], the “potency compared to PV-267 in human cellular assay” value is listed as “more potent than the simple amide (PV-267)”. In data set [3] (setting [7]), this compound had a Cmax of 741 ng/mL, a half-life of 3.23 h, a level at 0.25 h of 741 ng/mL and a level at 0.5 h of 195 ng/mL. For the same compound, in data set [3] (mouse, in vivo), the “metabolism to the acid PV-623” value is listed as “remarkably stable”. In data set [3] (mouse, in vivo, ip, 10 mg/kg), this compound showed a Mean Plasma Concentration 0.25 hr of 741 ng/mL and a Mean Plasma Concentration 0.5 hr of 195 ng/mL.

For the compound `CC(=O)N[C@H](C(=O)N[C@H](C(=O)N[C@@H](CCCNC(=N)N)C(=O)N1Cc2ccccc2C[C@H]1C(=O)N[C@@H](Cc1ccccc1)C(N)=O)C1CCCC1)C(C)C` [PV-573] (Ac-V[Gly(cPent)]R[Tic]F-NH2), on HLA-DRB1*15:01 (setting [6]), the IC50 is 6.7 nM.

Consider `CC(=O)N[C@H](C(=O)N[C@H](C(=O)N[C@@H](Cc1c[nH]c(N)n1)C(=O)N1Cc2ccccc2C[C@H]1C(=O)N[C@@H](Cc1ccccc1)C(N)=O)C1CCCCC1)C(C)C` [PV-839] (Ac-V[Chg][X3][Tic]F-NH2), for which, at HLA-DRB1*15:01 (setting [6]), the IC50 came out at 25 nM.
